The values that follow come from US9995734B2, “Human T cell line assay for evaluating the immunologic identity of glatiramer acetate preparations” (Mylan Inc., priority 2013, dated 2018).

This experiment relates to Donor 1 Human T-Cell Lines (GMA-stimulated). As to the kind of experiment: BrdU uptake proliferation assay, Donor 1 T-cell lines initially stimulated with GMA. It counts as cell-based. The settings on record: 10 μg/mL GMA. On the procedure: Proliferation was evaluated by measuring ATP content using a luminescent method (CellTiter Glo Luminescent Cell Viability Assay, Promega, Madison, Wis., cat. #G7571) or by measuring BrdU uptake by ELISA (Millipore cat. #2752), in both cases following kit instructions. A split well format was used. Cells in each well were resuspended and 65 μl transferred to the wells of each of two new U-bottom 96-well plates, to generate the replicate plates. For the initial screening, the original 96-well plate received mitomycin-treated autologous PBMC as APC plus 10 μg/mL antigen (GA). A first replicate plate received 100 μl., mitomycin-treated PBMC alone (2×10^5), and no antigen, and a second replicate plate received 100 μL mitomycin-treated PBMC plus GA at a final concentration of 10 μg/mL. Therefore, all three plates received autologous APC (PBMC) treated with mitomycin C to prevent cell division. […] The latter two plates were incubated for 3 days at 37° C., 6% CO2 before adding CellTiter Glo or BrdU and measuring signal. IL-2 was added at 10 U/mL to the original 96-well plate for expansion on Day 17. For subsequent screenings, mitomycin-treated EBV-transformed autologous B-LCL (2×10^5 to 5×10^5 cells/mL) were used as APC.
GMA-responsive cell lines were obtained from Donor 1 PBMC as described above (2×10^5 cells/well, i.e., 1×10^6 cells/mL, plated with 10 μg/mL GMA; IL-2 added on Days 3 and 7). In a split well assay begun on Day 12 the cells were stimulated with 10 μg/mL GMA and 1×10^5 mitomycin-treated autologous PBMC as APC. BrdU was added on Day 3, cells were incubated 4.5 hours and fixed, and uptake measured. […] These cell lines each produced an increase in signal of at least 50% relative to (no antigen) control.

Turning to glatiramer acetate [GMA], the BrdU uptake runs as follows: (222-AC11, control 0.680) 1.244 OD450; (222-AF2, control 0.454) 1.119 OD450; (222-AF5, control 0.606) 1.133 OD450; (222-AG11, control 0.359) 0.875 OD450; (222-AG12, control 0.448) 0.949 OD450; (222-BA4, control 0.370) 0.603 OD450. The BrdU uptake by setting is: (222-BA11, control 0.255) 0.783 OD450; (222-BC11, control 0.499) 0.921 OD450. Besides, the “increase in signal relative to (no antigen) control” value (eight Donor 1 cell lines of Table 4) is recorded as “at least 50%”.
